Among the data in patent publication EP2435433B1, “(DIHYDRO)IMIDAZOISO[5,1-A]QUINOLINES AS FSH RECEPTOR AGONISTS FOR THE TREATMENT OF FERTILITY DISORDERS” (Merck Sharp & Dohme B.V., priority 2009, dated 2010) are EC50 values, retold here.

As usually defined, the EC50 is the concentration that produces a half-maximal response.

The target in this test is T1, human FSH receptor (Homo sapiens, UniProt P23945).
T1 construct: expressed in transfected cells; host or cells: Chinese Hamster Ovary (CHO) cells, stably transfected, cotransfected with CRE/promotor-firefly luciferase reporter
T1 sequence (P23945 18-695): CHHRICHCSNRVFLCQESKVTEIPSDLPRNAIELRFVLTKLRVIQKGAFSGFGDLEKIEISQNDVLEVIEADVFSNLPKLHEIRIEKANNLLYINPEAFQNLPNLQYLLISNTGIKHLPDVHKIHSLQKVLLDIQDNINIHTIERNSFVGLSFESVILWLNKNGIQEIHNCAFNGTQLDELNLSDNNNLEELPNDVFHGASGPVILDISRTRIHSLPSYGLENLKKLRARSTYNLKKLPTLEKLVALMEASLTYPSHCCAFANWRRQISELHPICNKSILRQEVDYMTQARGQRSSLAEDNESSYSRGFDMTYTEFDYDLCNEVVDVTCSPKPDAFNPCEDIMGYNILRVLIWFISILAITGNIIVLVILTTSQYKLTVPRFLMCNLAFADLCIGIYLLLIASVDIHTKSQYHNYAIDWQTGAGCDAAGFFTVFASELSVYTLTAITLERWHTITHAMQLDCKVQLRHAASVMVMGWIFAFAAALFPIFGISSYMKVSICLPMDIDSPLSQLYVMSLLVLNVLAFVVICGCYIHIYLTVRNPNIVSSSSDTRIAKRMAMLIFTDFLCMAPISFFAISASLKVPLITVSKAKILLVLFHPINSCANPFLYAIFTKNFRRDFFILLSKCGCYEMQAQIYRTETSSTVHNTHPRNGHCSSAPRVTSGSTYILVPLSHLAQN
Description: Agonistic activity of compounds at the human FSH receptor expressed in CHO cells, CRE/luciferase reporter (hFSHRago (CHO luc)). In kind it is cell-based. The settings on record: CHO cells stably transfected with the human FSH receptor and CRE/firefly luciferase reporter; 4 hours of incubation; half-maximal stimulation relative to the compound's own maximal effect; read-out: hFSHRago (CHO luc) EC50. The text has this:
The term EC50 means the concentration of the test compound that elicits half-maximal (50 %) stimulation compared to the compound's maximally attainable effect. The values can be determined e.g. in a cell line transfected with a FSH receptor gene and cotransfected with a cAMP responsive element/promoter directing the expression of a reporter gene. Values can be determined using a software program such as MathIQ (version 2.0, ID Business Solutions Limited).
Agonistic activity of the compounds at the human FSH receptor was determined in Chinese Hamster Ovary (CHO) cells stably transfected with the human FSH receptor and cotransfected with a cAMP responsive element (CRE)/promotor directing the expression of a firefly luciferase reporter gene. Binding of the compounds to the Gs protein-coupled FSH receptor will result in an increase of cAMP, which in turn will induce an increased transactivation of the luciferase reporter. Cells (7,500 cells/well of a 384 well plate) were incubated in Dulbecco' minimal essential F12 modified medium (Invitrogen), supplemented with 1 µg/ml bovine insulin, 5 µg/ml human apo-transferrin, 80 U/ml penicillin G and 80 µg/ml streptomycin with the test compounds (concentration between 0.0316 nM and 10.0 µM) in duplicate in a humidified atmosphere (95%) at 5-7% CO2 and 37°C. The final concentration of DMSO was 1%. After 4 hours of incubation, plates were allowed to adjust to room temperature for 1 hour. Then, Luclite (PerkinElmer) solution was added to the wells and cells were allowed to lyse for at least 1 hour at room temperature. Subsequently, luciferase activity was measured in a luminescence counter. The signal is expressed as counts per second (cps). The EC50 (concentration of the test compound that elicits half-maximal (50 %) luciferase stimulation compared to the compound's maximally attainable effect) and efficacy values (maximal effect of the test compound as percentage of the maximal effect of recombinant human FSH) of the compounds were determined using the software program MathIQ (version 2.0, ID Business Solutions Limited). EC50 data are indicated at the synthesis examples.
In general terms: In a reporter assay the amount or activity of a reporter protein is the signal.
As for `COc1cc2c(cc1C(=O)NC(C)C)-c1c(-c3cccs3)nc(C(=O)N(C)C(C)(C)C)n1CC2` [Example 5, 8-Methoxy-1-thiophen-2-yl-5,6-dihydro-imidazo[5,1-a]isoquinoline-3,9-dicarboxylic acid 3-(tert-butyl-methyl-amide) 9-isopropylamide], the EC50 is 0.018 µM.

With `COc1cc2c(cc1N)-c1c(-c3cccs3)nc(C(=O)N(C)C(C)(C)C)n1CC2` [Example 6b, 9-Amino-8-methoxy-1-thiophen-2-yl-5,6-dihydro-imidazo[5,1-a]isoquinoline-3-carboxylic acid tert-butyl-methyl-amide], the EC50 was found to be 0.74 µM.

As for `COc1cc2c(cc1NC(=O)C(C)O)-c1c(-c3cccs3)nc(C(=O)N(C)C(C)(C)C)n1CC2` (stereo not shown) [Example 7, 9-(2-Hydroxy-propionylamino)-8-methoxy-1-thiophen-2-yl-5,6-dihydro-imidazo[5,1-a]isoquinoline-3-carboxylic acid tert-butyl-methyl-amide], the EC50 was determined as 0.035 µM.

As to `COc1cc2c(cc1NC(=O)[C@H](C)N)-c1c(-c3cccs3)nc(C(=O)N(C)C(C)(C)C)n1CC2` [Example 8, 9-((S)-2-Amino-propionylamino)-8-methoxy-1-thiophen-2-yl-5,6-dihydro-imidazo[5,1-a]isoquinoline-3-carboxylic acid tert-butyl-methyl-amide], the EC50 turned out to be 0.049 µM.

Regarding `COc1cc2c(cc1NC(=O)c1cccnc1)-c1c(-c3cccs3)nc(C(=O)N(C)C(C)(C)C)n1CC2` [Example 9, 8-Methoxy-9-[(pyridine-3-carbonyl)-amino]-1-thiophen-2-yl-5,6-dihydro-imidazo[5,1-a]isoquinoline-3-carboxylic acid tert-buyl-methyl-amide], the EC50 is 0.224 µM.

Turning to `COc1cc2c(cc1NC(=O)c1nccs1)-c1c(-c3cccs3)nc(C(=O)N(C)C(C)(C)C)n1CC2` [Example 10, 8-Methoxy-9-[(thiazole-2-carbonyl)-amino]-1-thiophen-2-yl-5,6-dihydro-imidazo[5,1-a]isoquinoline-3-carboxylic acid tert-butyl-methyl-amide], the EC50 was found to be 0.012 µM.

Regarding `COc1cc2c(cc1NC(=O)c1cscn1)-c1c(-c3cccs3)nc(C(=O)N(C)C(C)(C)C)n1CC2` [Example 11, 8-Methoxy-9-[(thiazole-4-carbonyl)-amino]-1-thiophen-2-yl-5,6-dihydro-imidazo[5,1-a]isoquinoline-3-carboxylic acid tert-butyl-methyl-amide], the EC50 was found to be 0.013 µM.

`COc1cc2c(cc1NC(=O)c1csnn1)-c1c(-c3cccs3)nc(C(=O)N(C)C(C)(C)C)n1CC2` [Example 12, 8-Methoxy-9-[([1,2,3]thiadiazole-4-carbonyl)-amino]-1-thiophen-2-yl-5,6-dihydro-imidazo[5,1-a]isoquinoline-3-carboxylic acid tert-butyl-methyl-amide]: the EC50 turned out to be 0.015 µM.

Take `CCN(C)CC(=O)Nc1cc2c(cc1OC)CCn1c(C(=O)N(C)C(C)(C)C)nc(-c3cccs3)c1-2` [Example 13b, 9-[2-(Ethyl-methyl-amino)-acetylamino]-8-methoxy-1-thiophen-2-yl-5,6-dihydro-imidazo[5,1-a]isoquinoline-3-carboxylic acid tert-butyl-methyl-amide]: the concentration for a half-maximal effect (EC50) came to 0.026 µM.

`COc1cc2c(cc1NC(=O)CN1CCOCC1)-c1c(-c3cccs3)nc(C(=O)N(C)C(C)(C)C)n1CC2` [Example 14, 8-Methoxy-9-(2-morpholin-4-yl-acetylamino)-1-thiophen-2-yl-5,6-dihydro-imidazo[5,1-a]isoquinoline-3-carboxylic acid tert-butyl-methyl-amide]: the EC50 was 0.01 µM.

Regarding `COc1cc2ccn3c(C(=O)N(C)C(C)(C)C)nc(-c4cccs4)c3c2cc1C=C(C)C` [Example 16e, 8-Methoxy-9-(2-methyl-propenyl)-1-thiophen-2-yl-imidazo[5,1-a]isoquinoline-3-carboxylic acid tert-butyl-methyl-amide], the EC50 worked out at 0.009 µM.

As for `COc1cc2ccn3c(C(=O)N(C)C(C)(C)C)nc(-c4cccs4)c3c2cc1-c1cnn(C)c1` [Example 17b, 8-Methoxy-9-(1-methyl-1H-pyrazol-4-yl)-1-thiophen-2-yl-imidazo[5,1-a]isoquinoline-3-carboxylic acid tert-butyl-methyl-amide], the EC50 stood at 0.023 µM.

Take `COc1cc2c(cc1CC(C)C)-c1c(-c3cccs3)nc(C(=O)N(C)C(C)(C)C)n1CC2` [Example 18k, 9-Isobutyl-8-methoxy-1-thiophen-2-yl-5,6-dihydro-imidazo[5,1-a]isoquinoline-3-carboxylic acid tert-butyl-methyl-amide]: the concentration for a half-maximal effect (EC50) was 0.008 µM.

As for `C=Cc1cc2c(cc1CC(C)C)-c1c(-c3cccs3)nc(C(=O)N(C)C(C)(C)C)n1CC2` [Example 19d, 9-Isobutyl-1-thiophen-2-yl-8-vinyl-5,6-dihydro-imidazo[5,1-a]isoquinoline-3-carboxylic acid tert-butyl-methyl-amide], the EC50 is 0.076 µM.

As to `CCc1cc2c(cc1CC(C)C)-c1c(-c3cccs3)nc(C(=O)N(C)C(C)(C)C)n1CC2` [Example 19e, 8-Ethyl-9-isobutyl-1-thiophen-2-yl-5,6-dihydro-imidazo[5,1-a]isoquinoline-3-carboxylic acid tert-butyl-methyl-amide], the EC50 was 0.2 µM.

As for `CC(C)Cc1ccc2c(c1)-c1c(-c3cccs3)nc(C(=O)N(C)C(C)(C)C)n1CC2` [Example 20b, 9-Isobutyl-1-thiophen-2-yl-5,6-dihydro-imidazo[5,1-a]isoquinoline-3-carboxylic acid tert-butyl-methyl-amide], the EC50 was found to be 0.407 µM.

With `CCN(C(=O)c1nc(-c2cccs2)c2n1CCc1cc(OC)c(OC(C)C)cc1-2)C(C)(C)C` [Example 21f, 9-Isopropoxy-8-methoxy-1-thiophen-2-yl-5,6-dihydro-imidazo[5,1-a]isoquinoline-3-carboxylic acid tert-butyl-ethyl-amide], the EC50 is 0.0009 µM.

For the compound `COc1cc2c(cc1OC(C)C)-c1c(-c3cccs3)nc(C(=O)N3CCCC3(C)C)n1CC2` [Example 22, (2,2-Dimethyl-pyrrolidin-1-yl)-(9-isopropoxy-8-methoxy-1-thiophen-2-yl-5,6-dihydro-imidazo[5,1-a]isoquinolin-3-yl)-methanone], the EC50 was 0.003 µM.

In the case of `CCC1CCCN1C(=O)c1nc(-c2cccs2)c2n1CCc1cc(OC)c(OC(C)C)cc1-2` (stereo not shown) [Example 23, (2-Ethyl-pyrrolidin-1-yl)-(9-isopropoxy-8-methoxy-1-thiophen-2-yl-5,6-dihydro-imidazo[5,1-a]isoquinolin-3-yl)-methanone], the concentration giving a half-maximal response (EC50) was found to be 0.063 µM.

For `COc1cc2c(cc1OC)-c1c(-c3cccs3)nc(C(=O)N3CCCC3C)n1CC2` (stereo not shown) [Example 24c, (2-Methyl-pyrrolidin-1-yl)-(9-methoxy-8-methoxy-1-thiophen-2-yl-5,6-dihydro-imidazo[5,1-a]isoquinolin-3-yl)-methanone], the EC50 is 0.333 µM.

Take `COc1cc2c(cc1OC)-c1c(-c3cccs3)nc(C(=O)N(CCO)C(C)C)n1CC2` [Example 25, 8,9-Dimethoxy-1-thiophen-2-yl-5,6-dihydro-imidazo[5,1-a]isoquinoline-3-carboxylic acid (2-hydroxy-ethyl)-isopropyl-amide]: the EC50 worked out at 0.138 µM.

`COc1cc2c(cc1OC)-c1c(-c3cccs3)nc(C(=O)N3CCCOCC3)n1CC2` [Example 26, (8,9-Dimethoxy-1-thiophen-2-yl-5,6-dihydro-imidazo[5,1-a]isoquinolin-3-yl)-[1,4]oxazepan-4-yl-methanone]: the concentration for a half-maximal effect (EC50) worked out at 0.314 µM.
